# System: Ehrlich ascites tumor cells
# Test: Concentration-dependent inhibition of growth of Ehrlich ascites tumor cells (antiproliferative action)
# Type: cell-based
# From the text: The novel alkylphosphonoserines have a strong cytostatic and virustatic action. In order to determine the cytostatic action, the antiproliferative action was investigated in Ehrlich ascites tumor cells. It can be seen here that the compounds according to the invention have excellent cytostatic action. They can therefore be employed as cytostatics or virustatics, alone or in a mixture with other active substances, in the form of customary pharmaceutical preparations.
# Concentration-dependent Inhibition of Growth of Ehrlich Ascites Tumor Cells
structure (smiles),measurement,setting,value
"CCCCCCCCCCCCCCCCP(=O)(O)OC[C@H](N)C(=O)O [n-Hexadecyl phosphono-L-serine, n-Hexadecylphosphono-L-serine]",inhibition at 100 µM,Concentration 1 × 10^-4 M,89%
same,inhibition at 10 µM,Concentration 1 × 10^-5 M,13%
same,inhibition at 30 µM,Concentration 3 × 10^-5 M,45%
same,inhibition at 3 µM,Concentration 3 × 10^-6 M,9%

# Source: patent US5155099A, “Alkylphosphonoserines and pharmaceutical compositions useful as cytostatic agents” (Hafslund Nycomed Pharma Aktiengesellschaft, priority 1988, dated 1992)
